Where two headings read alike, the source gives them in different places.
Legend:
[1] = molecular target: Kif5b-RET fusion protein in HEK-293 cells (Homo sapiens, UniProt P07949); assay: cell-based
Description: The cellular potency of a compound inhibiting RET kinase was determined in HEK-293 cells expressing a Kif5b-RET fusion protein. Briefly, HEK-293 cells expressing a Kif5b-RET fusion protein were plated at 50K cells/well in 96 well poly-D-Lysine coated plates the day prior to the assay. The cells were incubated for 1 hour with test compound in DMEM (Dulbecco's Modified Eagle Medium) at a final DMSO concentration of 0.5%. […] After 1 hour the media was removed, the cells were fixed with 3.8% formaldehyde for 20 min, washed with PBS, and permeabilized for 10 min with 100% methanol. […] All antibodies were diluted in LI-COR Block containing 0.05% Tween. The plates were washed with PBS-0.05% Tween20, 100 μL PBS was added to each well, and the plates were read on a LI-COR Aerius fluorescent plate reader. The phospho-RET signal was normalized to the GAPDH signal. […] The IC50 value is the point where the curve crosses 50 POC.

[2] = molecular target: N-terminal GST tagged recombinant human RET cytoplasmic domain (aa 658-end), wild type RET kinase (Homo sapiens (Human), UniProt P07949); assay: RET Enzyme Assay (HTRF KinEASE-TK), wild type RET; format: biochemical; conditions: wild type RET, 1 mM ATP
Sequence of N-terminal GST tagged recombinant human RET cytoplasmic domain (aa 658-end), wild type RET kinase (P07949 658-1114): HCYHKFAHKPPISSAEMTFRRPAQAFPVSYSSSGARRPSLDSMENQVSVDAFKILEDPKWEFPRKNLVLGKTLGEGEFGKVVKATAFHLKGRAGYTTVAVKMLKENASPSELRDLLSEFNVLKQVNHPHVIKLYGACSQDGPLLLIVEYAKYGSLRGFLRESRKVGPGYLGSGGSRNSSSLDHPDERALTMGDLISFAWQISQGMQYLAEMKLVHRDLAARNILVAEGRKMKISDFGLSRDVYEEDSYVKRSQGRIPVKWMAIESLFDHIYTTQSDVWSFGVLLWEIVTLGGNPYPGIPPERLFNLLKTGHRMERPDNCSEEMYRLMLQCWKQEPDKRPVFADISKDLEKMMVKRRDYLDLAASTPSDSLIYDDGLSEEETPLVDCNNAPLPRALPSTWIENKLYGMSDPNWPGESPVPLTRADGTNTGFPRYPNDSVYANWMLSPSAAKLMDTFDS

[3] = HEK-293 cells expressing Kif5b-RET, read-out: KIF5B-RET pTYR1062 Cell IC50

Sequence of Kif5b-RET fusion protein in HEK-293 cells (P07949 29-1114 limits assumed): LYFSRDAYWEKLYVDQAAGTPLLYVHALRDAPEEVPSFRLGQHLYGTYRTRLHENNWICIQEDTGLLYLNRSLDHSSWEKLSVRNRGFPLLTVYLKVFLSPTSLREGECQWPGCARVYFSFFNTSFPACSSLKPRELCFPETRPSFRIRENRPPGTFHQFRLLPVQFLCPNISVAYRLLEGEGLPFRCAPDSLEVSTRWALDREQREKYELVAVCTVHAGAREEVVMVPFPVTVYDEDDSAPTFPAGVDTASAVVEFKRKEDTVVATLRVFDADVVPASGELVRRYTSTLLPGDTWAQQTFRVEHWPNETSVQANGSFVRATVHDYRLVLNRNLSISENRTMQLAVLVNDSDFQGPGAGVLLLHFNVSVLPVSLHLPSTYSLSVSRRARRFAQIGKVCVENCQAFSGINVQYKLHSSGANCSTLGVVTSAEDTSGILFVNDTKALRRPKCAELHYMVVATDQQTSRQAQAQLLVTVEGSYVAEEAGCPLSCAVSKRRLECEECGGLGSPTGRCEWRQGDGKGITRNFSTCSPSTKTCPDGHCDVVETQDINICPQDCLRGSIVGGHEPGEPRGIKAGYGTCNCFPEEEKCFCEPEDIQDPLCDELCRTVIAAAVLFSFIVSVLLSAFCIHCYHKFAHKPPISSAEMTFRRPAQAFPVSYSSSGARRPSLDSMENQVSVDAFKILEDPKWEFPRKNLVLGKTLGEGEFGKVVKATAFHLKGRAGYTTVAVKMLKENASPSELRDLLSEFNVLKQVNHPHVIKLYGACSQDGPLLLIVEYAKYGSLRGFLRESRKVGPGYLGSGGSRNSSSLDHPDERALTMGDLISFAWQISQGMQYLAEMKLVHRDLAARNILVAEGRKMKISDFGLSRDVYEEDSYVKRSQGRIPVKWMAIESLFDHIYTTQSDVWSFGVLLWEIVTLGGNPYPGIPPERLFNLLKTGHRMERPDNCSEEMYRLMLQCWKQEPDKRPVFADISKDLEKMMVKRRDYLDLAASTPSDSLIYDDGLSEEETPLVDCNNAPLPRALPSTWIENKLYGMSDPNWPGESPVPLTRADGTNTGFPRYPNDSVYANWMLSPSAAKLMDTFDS

Row | IC50 [2] | IC50 [1, 3] | SMILES | IC50 [1]
1 | 34.4 nM | 63 nM | Cn1cc(-c2cc(-c3ccc(N4CCN(Cc5ccccc5)CC4)nc3)c3c(Cl)cnn3c2)cn1 [Example 647, 4-(6-(4-benzylpiperazin-1-yl)pyridine-3-yl)-3-chloro-6-(1-methyl-1H-pyrazol-4-yl)pyrazolo[1,5-a]pyridine] | 
2 | 86.9 nM | 69.4 nM | Cc1cnn2cc(-c3cnn(C)c3)cc(-c3ccc(N4CCN(Cc5ccccc5)CC4)nc3)c12 [Example 653, 4-(6-(4-benzylpiperazin-1-yl)pyridin-3-yl)-3-methyl-6-(1-methyl-1H-pyrazol-4-yl)pyrazolo[1,5-a]pyridine] | 
3 | 70.6 nM | 164 nM | Cc1cnn2cc(-c3cnn(C)c3)cc(-c3ccc(N4CCN(Cc5ccccn5)CC4)nc3)c12 [Example 654, 3-methyl-6-(1-methyl-1H-pyrazol-4-yl)-4-(6-(4-(pyridine-2-ylmethyl)piperazin-1-yl)pyridin-3-yl)pyrazolo[1,5-a]pyridine] | 
4 | 140 nM | 215 nM | CCc1cnn2cc(-c3cnn(C)c3)cc(-c3ccc(N4CCNCC4)nc3)c12 [Example 657, 3-ethyl-6-(1-methyl-1H-pyrazol-4-yl)-4-(6-(piperazin-1-yl)pyridin-3-yl)pyrazolo[1,5-a]pyridine] | 
5 | 19.3 nM | 17.3 nM | COc1cc(C)c(CN2CCN(c3ccc(-c4cc(-c5cnn(C)c5)cn5ncc(C#N)c45)cn3)CC2)cn1 [Example 672, 4-(6-(4-((6-methoxy-4-methylpyridin-3-yl)methyl)piperazin-1-yl)pyridin-3-yl)-6-(1-methyl-1H-pyrazol-4-yl)pyrazolo[1,5-a]pyridine-3-carbonitrile] | 
6 | 42.5 nM | 74.7 nM | Cn1cc(-c2cc(-c3ccc(N4CCN(Cc5ccc(OCC(F)(F)F)nc5)CC4)nc3)c3c(C#N)cnn3c2)cn1 [Example 674, 6-(1-methyl-1H-pyrazol-4-yl)-4-(6-(4-((6-(2,2,2-trifluoroethoxy)pyridin-3-yl)methyl)piperazin-1-yl)pyridin-3-yl)pyrazolo[1,5-a]pyridine-3-carbonitrile] | 
7 | 13.6 nM | 24.1 nM | Cn1cc(-c2cc(-c3ccc(N4CCN(Cc5ccc(OC(F)F)nc5)CC4)nc3)c3c(C#N)cnn3c2)cn1 [Example 675, 4-(6-(4-((6-(difluoromethoxy)pyridin-3-yl)methyl)piperazin-1-yl)pyridin-3-yl)-6-(1-methyl-1H-pyrazol-4-yl)pyrazolo[1,5-a]pyridine-3-carbonitrile] | 
8 | 6.7 nM | 12.4 nM | COc1ccc(CN2CCN(c3ccc(-c4cc(-c5cn[nH]c5)cn5ncc(C#N)c45)cn3)CC2)cn1 [Example 698, 4-(6-(4-((6-methoxypyridin-3-yl)methyl)piperazin-1-yl)pyridin-3-yl)-6-(1H-pyrazol-4-yl)pyrazolo[1,5-a]pyridine-3-carbonitrile] | 
9 | 19.4 nM | 24.3 nM | COc1cccc(CN2CCN(c3ccc(-c4cc(-c5cn[nH]c5)cn5ncc(C#N)c45)cn3)CC2)n1 [Example 699, 4-(6-(4-((6-methoxypyridin-2-yl)methyl)piperazin-1-yl)pyridin-3-yl)-6-(1H-pyrazol-4-yl)pyrazolo[1,5-a]pyridine-3-carbonitrile] | 
10 | 16.5 nM | 8 nM | COc1ccc(CN2CCN(c3ccc(-c4cc(-c5cnn(C[C@H](C)O)c5)cn5ncc(C#N)c45)cn3)CC2)cn1 [Example 701, (S)-6-(1-(2-hydroxypropyl)-1H-pyrazol-4-yl)-4-(6-(4-((6-methoxypyridin-3-yl)methyl)piperazin-1-yl)pyridin-3-yl)pyrazolo[5-a]pyridine-3-carbonitrile] | 
11 | 15.3 nM | 5.6 nM | COc1ccc(CN2CCN(c3ccc(-c4cc(-c5cnn(CC(C)(C)O)c5)cn5ncc(C#N)c45)cn3)CC2)cn1 [Example 702, 6-(1-(2-hydroxy-2-methylpropyl)-1H-pyrazol-4-yl)-4-(6-(4-((6-methoxypyridin-3-yl)methyl)piperazin-1-yl)pyridin-3-yl)pyrazolo[1,5-a]pyridine-3-carbonitrile] | 
12 | 16.4 nM | 9.8 nM | COc1ccc(CN2CCN(c3ccc(-c4cc(-c5cnn(CCS(=O)(=O)C(C)C)c5)cn5ncc(C#N)c45)cn3)CC2)cn1 [Example 703, 6-(1-(2-(isopropylsulfonyl)ethyl)-1H-pyrazol-4-yl)-4-(6-(4-((6-methoxypyridin-3-yl)methyl)piperazin-1-yl)pyridin-3-yl)pyrazolo[1,5-a]pyridine-3-carbonitrile] | 
13 | 18.3 nM | 6.4 nM | COc1ccc(CN2CCN(c3ccc(-c4cc(-c5cnn(CCC(=O)N(C)C)c5)cn5ncc(C#N)c45)cn3)CC2)cn1 [Example 706, 3-(4-(3-cyano-4-(6-(4-((6-methoxypyridin-3-yl)methyl)piperazin-1-yl)pyridin-3-yl)pyrazolo[1,5-a]pyridin-6-yl)-1H-pyrazol-1-yl)-N,N-dimethylpropanamide] | 
14 | 26.2 nM | 9.3 nM | COc1ccc(CN2CCN(c3ccc(-c4cc(-c5cnn(CC(C)OC)c5)cn5ncc(C#N)c45)cn3)CC2)cn1 (centres unmarked) [Example 709, 6-(1-(2-methoxypropyl)-1H-pyrazol-4-yl)-4-(6-(4-((6-methoxypyridin-3-yl)methyl)piperazin-1-yl)pyridin-3-yl)pyrazolo[1,5-a]pyridine-3-carbonitrile] | 
15 | 20 nM | 12.6 nM | COc1ccc(CN2CCN(c3ccc(-c4cc(-c5cnn(CC(=O)N(C)C)c5)cn5ncc(C#N)c45)cn3)CC2)cn1 [Example 710, 2-(4-(3-cyano-4-(6-(4-((6-methoxypyridin-3-yl)methyl)piperazin-l-yl)pyridin-3-yl)pyrazolo[1,5-a]pyridin-6-yl)-1H-pyrazol-1-yl)-N,N-dimethylacetamide] | 

Row | SMILES | IC50 [2] | IC50 [1, 3] | IC50 [1]
16 | CC(C)OCCN1CCN(c2ccc(-c3cc(-c4cnn(C(F)F)c4)cn4ncc(C#N)c34)cn2)CC1 [Example 585, 6-(1-(difluoromethyl)-1H-pyrazol-4-yl)-4-(6-(4-(2-isopropoxyethyl)piperazin-1-yl)pyridin-3-yl)pyrazolo[1,5-a]pyridine-3-carbonitrile] | 13.6 nM |  | 13.2 nM
17 | Cc1nn(C)c(C)c1-c1cc(-c2ccc(N3CCN(Cc4ccccc4)CC3)nc2)c2c(C#N)cnn2c1 [Example 613, 4-(6-(4-benzylpiperazin-1-yl)pyridin-3-yl)-6-(1,3,5-trimethyl-1H-pyrazol-4-yl)pyrazolo[1,5-a]pyridine-3-carbonitrile] | 122 nM |  | 361 nM
18 | CCc1nn(CC)cc1-c1cc(-c2ccc(N3CCN(Cc4ccccc4)CC3)nc2)c2c(C#N)cnn2c1 [Example 615, 4-(6-(4-benzylpiperazin-1-yl)pyridin-3-yl)-6-(1,3-diethyl-1H-pyrazol-4-yl)pyrazolo[1,5-a]pyridine-3-carbonitrile] | 60 nM |  | 117 nM
19 | Cc1nn(C(C)(C)C)cc1-c1cc(-c2ccc(N3CCN(Cc4ccccc4)CC3)nc2)c2c(C#N)cnn2c1 [Example 616, 4-(6-(4-benzylpiperazin-1-yl)pyridin-3-yl)-6-(1-(tert-butyl)-3-methyl-1H-pyrazol-4-yl)pyrazolo[1,5-a]pyridine-3-carb onitrile] | 60.8 nM |  | 85.2 nM
20 | CC(C)C(O)CN1CCN(c2ccc(-c3cc(-c4cnn(C)c4)cn4ncc(Cl)c34)cn2)CC1 (centres unmarked) [Example 648, 1-(4-(5-(3-chloro-6-(1-methyl-1H-pyrazol-4-yl)pyrazolo[1,5-a]pyridin-4-yl)pyridine-2-yl)piperazin-1-yl)-3-methylbutan-2-ol] | 34.1 nM |  | 183 nM
21 | COc1ccc(CN2CCN(c3ccc(-c4cc(-c5cnn(C)c5)cn5ncc(C#N)c45)cn3)CC2)c(C)n1 [Example 678, 4-(6-(4-((6-methoxy-2-methylpyridin-3-yl)methyl)piperazin-l-yl)pyridin-3-yl)-6-(1-methyl-1H-pyrazol-4-yl)pyrazolo[1,5-a]pyridine-3-carbonitrile] | 15 nM |  | 16.3 nM
22 | COc1ccc(CN2CCN(c3ccc(-c4cc(-c5cnn(C(C)C)c5)cn5ncc(C#N)c45)cn3)CC2)cn1 [Example 697, 6-(1-isopropyl-1H-pyrazol-4-yl)-4-(6-(4-((6-methoxypyridin-3-yl)methyl)piperazin-1-yl)pyridin-3-yl)pyrazolo[1,5-a]pyridine-3-carbonitrile] | 28.1 nM |  | 13.8 nM
23 | COc1ccc(CN2CCN(c3ccc(-c4cc(-c5cnn(CCOC(C)C)c5)cn5ncc(C#N)c45)cn3)CC2)cn1 [Example 704, 6-(1-(2-isopropoxyethyl)-1H-pyrazol-4-yl)-4-(6-(4-((6-methoxypyridin-3-yl)methyl)piperazin-1-yl)pyridin-3-yl)pyrazolo[1,5-a]pyridine-3-carbonitrile] | 30.1 nM |  | 8.3 nM
24 | COc1ccc(CN2CCN(c3ncc(-c4cc(-c5cnn(C)c5)cn5ncc(C#N)c45)cc3F)CC2)cn1 [Example 736, 4-(5-fluoro-6-(4-((6-methoxypyridin-3-yl)methyl)piperazin-1-yl)pyridin-3-yl)-6-(1-methyl-1H-pyrazol-4-yl)pyrazolo[1,5-a]pyridine-3-carbonitrile] | 35.1 nM |  | 67.4 nM
25 | COc1ccc(CN2CCN(c3ccc(-c4cc(-c5cnn(C)c5)cn5ncc(Cl)c45)cn3)CC2)cn1 [Example 742, 3-chloro-4-(6-(4-((6-methoxypyridin-3-yl)methyl)piperazin-1-yl)pyridin-3-yl)-6-(1-methyl-1H-pyrazol-4-yl)pyrazolo[1,5-a]pyridine] | 37.3 nM |  | 38.5 nM

Source: patent publication US10023570B2 (Array BioPharma, Inc., priority 2015, dated 2018)
